According to ChEMBL document CHEMBL3734659, “Identification of tris-(phenylalkyl)amines as new selective h5-HT2Breceptor antagonists” (Medchemcomm, 2015):
Active and inactive are the calls of the source. The calls are words filed in the database; no cut-off is given here.

Tests used:
[1] = molecular target: T1, 5-hydroxytryptamine receptor 2C (Homo sapiens, UniProt P28335); test: Displacement of [3H]mesulergine from human recombinant 5-HT2C receptor expressed in Flp-IN HEK cell membrane after 90 mins by scintillation counting method; type: cell membranes, HEK293
T1 sequence (P28335 whole entry): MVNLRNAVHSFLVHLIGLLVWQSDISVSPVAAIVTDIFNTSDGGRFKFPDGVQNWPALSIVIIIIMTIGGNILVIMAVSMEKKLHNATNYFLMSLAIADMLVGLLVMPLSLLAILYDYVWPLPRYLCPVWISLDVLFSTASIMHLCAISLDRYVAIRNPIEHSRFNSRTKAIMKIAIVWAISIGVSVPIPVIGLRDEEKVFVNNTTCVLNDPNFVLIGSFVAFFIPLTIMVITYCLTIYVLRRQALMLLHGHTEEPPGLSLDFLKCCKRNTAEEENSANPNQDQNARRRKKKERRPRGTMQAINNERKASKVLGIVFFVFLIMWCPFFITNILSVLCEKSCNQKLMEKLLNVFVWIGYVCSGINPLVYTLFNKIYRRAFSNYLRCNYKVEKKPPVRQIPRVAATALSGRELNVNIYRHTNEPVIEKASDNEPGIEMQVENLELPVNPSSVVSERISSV

[2] = molecular target: T2, 5-hydroxytryptamine receptor 2C (Homo sapiens) (UniProt P28335); test: Displacement of [3H]mesulergine from human recombinant 5-HT2C receptor expressed in Flp-IN HEK cell membrane at 10 uM after 90 mins by scintillation counting method; type: cell membranes; details: HEK293
T2 sequence (whole entry): T1 sequence (P28335 whole entry)

[3] = molecular target: T3, 5-hydroxytryptamine receptor 2B (Homo sapiens, UniProt P41595); test: Antagonist activity at human recombinant 5-HT2B receptor expressed in Flp-In HEK cells at 10 uM in the presence of agonist preincubated for 10 mins by FLIPR based calcium mobilization assay; type: functional, cell-based; details: HEK293
HEK293 [4] = test: Selectivity ratio of Ki for human recombinant 5-HT2A receptor expressed in HEKT cell membrane to Ki for human recombinant 5-HT2B receptor stably expressed in HEK cells; type: cell-based
[5] = molecular target: T3, 5-hydroxytryptamine receptor 2B; test: Agonist activity at human recombinant 5-HT2B receptor expressed in Flp-In HEK cells preincubated for 10 mins by FLIPR based calcium mobilization assay; type: functional, cell-based; details: HEK293
[6] = molecular target: T4, 5-hydroxytryptamine receptor 2A (Homo sapiens, UniProt P28223); test: Displacement of [3H]ketanserin from human recombinant 5-HT2A receptor expressed in HEKT cell membrane at 10 uM after 90 mins by scintillation counting method; type: cell membranes
[7] = molecular target: T3, 5-hydroxytryptamine receptor 2B; test: Displacement of [3H]LSD from human recombinant 5-HT2B receptor stably expressed in HEK cell membrane at 10 uM after 90 mins by scintillation counting method; type: cell membranes; details: HEK293
[8] = molecular target: T3, 5-hydroxytryptamine receptor 2B; test: Displacement of [3H]LSD from human recombinant 5-HT2B receptor stably expressed in HEK cell membrane after 90 mins by scintillation counting method; type: cell membranes, HEK293
[9] = molecular target: T4, 5-hydroxytryptamine receptor 2A; test: Displacement of [3H]ketanserin from human recombinant 5-HT2A receptor expressed in HEKT cell membrane after 90 mins by scintillation counting method; type: cell-based
HEK293 [10] = test: Selectivity ratio of Ki for human recombinant 5-HT2C receptor to Ki for human recombinant 5-HT2B receptor stably expressed in HEK cell membrane; type: cell-based
[11] = molecular target: T3, 5-hydroxytryptamine receptor 2B; test: Antagonist activity at human recombinant 5-HT2B receptor expressed in Flp-In HEK cells in the presence of agonist preincubated for 10 mins by FLIPR based calcium mobilization assay; type: functional, cell-based, HEK293

T4 sequence (P28223 whole entry): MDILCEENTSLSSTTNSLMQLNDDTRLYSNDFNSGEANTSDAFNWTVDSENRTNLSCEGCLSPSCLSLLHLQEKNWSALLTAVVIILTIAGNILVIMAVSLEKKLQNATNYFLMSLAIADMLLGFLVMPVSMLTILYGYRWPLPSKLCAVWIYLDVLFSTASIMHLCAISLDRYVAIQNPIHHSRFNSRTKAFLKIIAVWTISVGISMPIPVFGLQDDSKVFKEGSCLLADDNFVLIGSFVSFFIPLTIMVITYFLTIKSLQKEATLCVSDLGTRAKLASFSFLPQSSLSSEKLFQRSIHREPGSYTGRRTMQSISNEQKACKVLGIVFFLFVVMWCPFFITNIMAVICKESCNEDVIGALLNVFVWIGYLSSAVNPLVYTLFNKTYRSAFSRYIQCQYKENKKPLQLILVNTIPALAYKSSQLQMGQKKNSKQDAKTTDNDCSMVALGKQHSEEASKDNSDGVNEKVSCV
T3 sequence (P41595 whole entry): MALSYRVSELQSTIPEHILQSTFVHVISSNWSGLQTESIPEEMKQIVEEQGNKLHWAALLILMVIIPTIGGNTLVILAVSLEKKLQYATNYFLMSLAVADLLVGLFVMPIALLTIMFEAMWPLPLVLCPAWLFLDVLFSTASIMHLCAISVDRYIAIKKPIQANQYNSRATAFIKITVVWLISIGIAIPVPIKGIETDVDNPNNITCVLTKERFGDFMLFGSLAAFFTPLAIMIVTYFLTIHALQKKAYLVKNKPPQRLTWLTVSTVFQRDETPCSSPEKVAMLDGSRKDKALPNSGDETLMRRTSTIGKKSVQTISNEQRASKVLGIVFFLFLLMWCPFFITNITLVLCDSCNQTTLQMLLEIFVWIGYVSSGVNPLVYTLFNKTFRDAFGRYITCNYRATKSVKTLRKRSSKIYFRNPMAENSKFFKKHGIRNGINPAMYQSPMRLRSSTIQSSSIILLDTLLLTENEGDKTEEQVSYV

Ki ([1]; read-out: Ki) | inhibition [2] | Activity [3] | Activity [5] | inhibition [6] | inhibition [7] | Ki [8] | Ki [9] | IC50 [11] | Ki ([1]; hek293) | Compound | Ratio Ki (HEK293 [4]) | Ratio Ki (HEK293 [10])
103 nM | > 50% | inactive | inactive | > 50% | > 50% | 59 nM | 1510 nM |  |  | COc1cccc(CCCN(CCc2ccc(OC)c(OC)c2)Cc2ccc3c(c2)OCO3)c1 | 26 | 2
123 nM | > 50% |  | inactive | > 50% | > 50% | 5.8 nM | 140 nM | 10000 nM |  | COc1ccccc1CCCN(CCc1ccc(OC)c(OC)c1)CCc1ccc2c(c1)OCO2 | 24 | 21
241 nM | > 50% |  | inactive | > 50% | > 50% | 21 nM | 226 nM | 6310 nM |  | COc1ccc(CCN(CC/C=C\c2ccccc2)Cc2ccc3c(c2)OCO3)cc1OC | 11 | 12
194 nM | > 50% |  | inactive | > 50% | > 50% | 4.1 nM | 146 nM | 1260 nM |  | COc1ccc(CCN(CCCc2cc(OC)c(OC)c(OC)c2)CCc2ccc3c(c2)OCO3)cc1OC | 36 | 47
 |  |  |  |  |  | 21 nM |  |  |  | Cn1ccc2cc3c(cc21)CCN3C(=O)Nc1cccnc1 |  | 
1090 nM | > 50% |  | inactive | > 50% | > 50% | 59 nM | 3530 nM |  |  | COc1ccc(CCN(CCc2ccc3c(c2)OCO3)Cc2ccccc2)cc1OC | 60 | 19
108 nM | > 50% |  | inactive | > 50% | > 50% | 4.6 nM | 200 nM | 1260 nM |  | COc1cccc(CCCN(CCc2ccc(OC)c(OC)c2)CCc2ccc3c(c2)OCO3)c1 | 43 | 24
1.8 nM |  |  |  |  |  |  |  |  |  | Cc1nc2sccn2c(=O)c1CCN1CCC(=C(c2ccc(F)cc2)c2ccc(F)cc2)CC1 [RITANSERIN] |  | 
273 nM | > 50% |  | inactive | > 50% | > 50% | 36 nM | 919 nM | 7940 nM |  | COc1ccc(OC)c(CCCN(CCc2ccc(OC)c(OC)c2)CCc2ccc3c(c2)OCO3)c1 | 26 | 8
690 nM | > 50% |  | inactive | > 50% | > 50% | 17 nM | 1470 nM | 10000 nM |  | COc1ccc(CCN(CCc2ccccc2)CCc2ccc3c(c2)OCO3)cc1OC | 87 | 41
 |  |  | inactive | > 50% | > 50% | 231 nM | 2230 nM | 12600 nM | Not Active | COc1ccc(CCN(CCCc2cc(OC)c(OC)c(OC)c2)Cc2ccc3c(c2)OCO3)cc1OC |  | 
206 nM | > 50% |  | inactive | > 50% | > 50% | 6.8 nM | 267 nM | 3980 nM |  | COc1ccc(CCCN(CCc2ccc(OC)c(OC)c2)CCc2ccc3c(c2)OCO3)cc1 | 39 | 30
